Measurements as given in US8497380B2, “Substituted acetophenones useful as PDE4 inhibitors” (Leo Pharma A/S, priority 2006, dated 2013).

System: Human peripheral blood mononuclear cells (PBMC)
Assay: TNFalfa-Release
Type: cell-based
Settings: inhibition of TNF-a secretion, PBMC pre-incubated 30 minutes, stimulated 18 hours with lipopolysaccharide
How it was run: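 Buffy-coat PBMC at 5×105 c/ml in RPMI1640 with 2% FCS were pre-incubated 30 min with compound, then stimulated 18 h with LPS 1 mg/ml. Supernatant TNF-a measured by enzyme immunoassay; pIC50 from inhibition curves relative to LPS-stimulated and unstimulated wells.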

| SMILES | IC50 |
| --- | --- |
| COc1ccc(C(=O)Cc2c(Cl)cncc2Cl)c(OCC(=O)NCc2ccco2)c1OC [Compound 228, 2-{6-[2-(3,5-Dichloro-pyridin-4-yl)-acetyl]-2,3-dimethoxy-phenoxy}-N-furan-2-ylmethyl-acetamide] | < 1 µM |
| COc1ccc(C(=O)Cc2c(Cl)cncc2Cl)c(OCC(=O)NCc2ccccn2)c1OC [Compound 229, 2-{6-[2-(3,5-Dichloro-pyridin-4-yl)-acetyl]-2,3-dimethoxy-phenoxy}-N-pyridin-2-ylmethyl-acetamide] | < 1 µM |
| COc1ccc(C(=O)Cc2c(Cl)cncc2Cl)c(OCC(=O)NCc2cccnc2)c1OC [Compound 230, 2-{6-[2-(3,5-Dichloro-pyridin-4-yl)-acetyl]-2,3-dimethoxy-phenoxy}-N-pyridin-3-ylmethyl-acetamide] | < 1 µM |
| COc1ccc(C(=O)Cc2c(Cl)cncc2Cl)c(OCC(=O)NCCOc2ccccc2)c1OC [Compound 231, 2-{6-[2-(3,5-Dichloro-pyridin-4-yl)-acetyl]-2,3-dimethoxy-phenoxy}-N-(2-phenoxy-ethyl)-acetamide] | < 1 µM |
| COc1ccc(C(=O)Cc2c(Cl)cncc2Cl)c(OCC(=O)NCc2ccncc2)c1OC [Compound 232, 2-{6-[2-(3,5-Dichloro-pyridin-4-yl)-acetyl]-2,3-dimethoxy-phenoxy}-N-pyridin-4-ylmethyl-acetamide] | < 1 µM |
| CCc1ccc(CNC(=O)COc2c(C(=O)Cc3c(Cl)cncc3Cl)ccc(OC)c2OC)cc1 [Compound 233, 2-{6-[2-(3,5-Dichloro-pyridin-4-yl)-acetyl]-2,3-dimethoxy-phenoxy}-N-(4-ethyl-benzyl)-acetamide] | < 1 µM |
| COc1ccc(C(=O)Cc2c(Cl)cncc2Cl)c(OCC(=O)NCc2cc(F)cc(F)c2)c1OC [Compound 234, 2-{6-[2-(3,5-Dichloro-pyridin-4-yl)-acetyl]-2,3-dimethoxy-phenoxy}-N-(3,5-difluoro-benzyl)-acetamide] | < 1 µM |
| COc1ccc(C(=O)Cc2c(Cl)cncc2Cl)c(OCC(=O)NCc2cccc(F)c2F)c1OC [Compound 235, 2-{6-[2-(3,5-Dichloro-pyridin-4-yl)-acetyl]-2,3-dimethoxy-phenoxy}-N-(2,3-difluoro-benzyl)-acetamide] | < 1 µM |
| COc1ccc(C(=O)Cc2c(Cl)cncc2Cl)c(OCC(=O)NCCc2ccccn2)c1OC [Compound 236, 2-{6-[2-(3,5-Dichloro-pyridin-4-yl)-acetyl]-2,3-dimethoxy-phenoxy}-N-(2-pyridin-2-yl-ethyl)-acetamide] | < 1 µM |
| COc1ccc(C(=O)Cc2c(Cl)cncc2Cl)c(OCC(=O)NCc2ccccc2C)c1OC [Compound 237, 2-{6-[2-(3,5-Dichloro-pyridin-4-yl)-acetyl]-2,3-dimethoxy-phenoxy}-N-(2-methyl-benzyl)-acetamide] | < 1 µM |
| COc1ccc(C(=O)Cc2c(Cl)cncc2Cl)c(OCC(=O)NCc2cccc(F)c2)c1OC [Compound 238, 2-{6-[2-(3,5-Dichloro-pyridin-4-yl)-acetyl]-2,3-dimethoxy-phenoxy}-N-(3-fluoro-benzyl)-acetamide] | < 1 µM |
| COc1ccc(C(=O)Cc2c(Cl)cncc2Cl)c(OCC(=O)NCc2cccc(C)c2)c1OC [Compound 239, 2-{6-[2-(3,5-Dichloro-pyridin-4-yl)-acetyl]-2,3-dimethoxy-phenoxy}-N-(3-methyl-benzyl)-acetamide] | < 1 µM |
| COc1ccc(C(=O)Cc2c(Cl)cncc2Cl)c(OCC(=O)NCc2ccc(C)cc2)c1OC [Compound 240, 2-{6-[2-(3,5-Dichloro-pyridin-4-yl)-acetyl]-2,3-dimethoxy-phenoxy}-N-(4-methyl-benzyl)-acetamide] | < 1 µM |
| COc1ccc(C(=O)Cc2c(Cl)cncc2Cl)c(OCC(=O)NCCc2ccccc2)c1OC [Compound 241, 2-{6-[2-(3,5-Dichloro-pyridin-4-yl)-acetyl]-2,3-dimethoxy-phenoxy}-N-phenethyl-acetamide] | < 1 µM |
| COc1ccc(C(=O)Cc2c(Cl)cncc2Cl)c(OCC(=O)NCCCc2ccccc2)c1OC [Compound 243, 2-{6-[2-(3,5-Dichloro-pyridin-4-yl)-acetyl]-2,3-dimethoxy-phenoxy}-N-(3-phenyl-propyl)-acetamide] | < 1 µM |
| COc1ccc(C(=O)Cc2c(Cl)cncc2Cl)c(OCC(=O)NCc2ccccc2Cl)c1OC [Compound 244, N-(2-Chloro-benzyl)-2-{6-[2-(3,5-dichloro-pyridin-4-yl)-acetyl]-2,3-dimethoxy-phenoxy}-acetamide] | < 1 µM |
| COc1ccc(C(=O)Cc2c(Cl)cncc2Cl)c(OCC(=O)NCc2cccc(Cl)c2)c1OC [Compound 246, N-(3-Chloro-benzyl)-2-{6-(2-(3,5-dichloro-pyridin-4-yl)-acetyl)-2,3-dimethoxy-phenoxy}-acetamide] | < 1 µM |
| COc1ccc(C(=O)Cc2c(Cl)cncc2Cl)c(OCC(=O)NCc2ccc(Cl)cc2)c1OC [Compound 248, N-(4-Chloro-benzyl)-2-{6-[2-(3,5-dichloro-pyridin-4-yl)-acetyl]-2,3-dimethoxy-phenoxy}-acetamide] | < 1 µM |

| SMILES | IC50 |
| --- | --- |
| COc1ccc(C(=O)Cc2c(Cl)cncc2Cl)c(OCC(=O)NCCc2cccnc2)c1OC [Compound 249, 2-{6-[2-(3,5-Dichloro-pyridin-4-yl)-acetyl]-2,3-dimethoxy-phenoxy}-14-(2-pyridin-3-yl-ethyl)-acetamide] | < 1 µM |
| COc1ccc(C(=O)Cc2c(Cl)cncc2Cl)c(OCC(=O)NCCNC(C)=O)c1OC [Compound 251, N-(2-Acetylamino-ethyl)-2-{6-[2-(3,5-dichloro-pyridin-4-yl)-acetyl]-2,3-dimethoxy-phenoxy}-acetamide] | < 1 µM |
| COc1ccc(C(=O)Cc2c(Cl)cncc2Cl)c(OCC(=O)NC[C@H](O)c2ccccc2)c1OC [Compound 252, (R)-2-{6-[2-(3,5-Dichloro-pyridin-4-yl)-acetyl]-2,3-dimethoxy-phenoxy}-N-(2-hydroxy-2-phenyl-ethyl)-acetamide] | < 1 µM |
| COc1ccc(C(=O)Cc2c(Cl)cncc2Cl)c(OCC(=O)NC[C@@H](O)c2ccccc2)c1OC [Compound 253, (S)-2-{6-[2-(3,5-Dichloro-pyridin-4-yl)-acetyl]-2,3-dimethoxy-phenoxy}-N-(2-hydroxy-2-phenyl-ethyl)-acetamide] | < 1 µM |
| COc1ccc(C(=O)Cc2c(Cl)cncc2Cl)c(OCC(=O)NCc2cccs2)c1OC [Compound 254, 2-{6-[2-(3,5-Dichloro-pyridin-4-yl)-acetyl]-2,3-dimethoxy-phenoxy}-N-thiophen-2-ylmethyl-acetamide] | < 1 µM |
| COc1ccc(C(=O)Cc2c(Cl)cncc2Cl)c(OCC(=O)NCCCN2CCCC2=O)c1OC [Compound 255, 2-{6-[2-(3,5-Dichloro-pyridin-4-yl)-acetyl]-2,3-dimethoxy-phenoxy}-N-[3-(2-oxo-pyrrolidin-1-yl)-propyl]-acetamide] | < 1 µM |
| COc1ccc(C(=O)Cc2c(Cl)cncc2Cl)c(OCC(=O)NC2c3ccccc3C[C@H]2O)c1OC (stereo partly drawn) [Compound 256, (2R)-2-{6-[2-(3,5-Dichloro-pyridin-4-yl)-acetyl]-2,3-dimethoxy-phenoxy}-N-(2-hydroxy-indan-1-yl)-acetamide] | < 1 µM |
| COc1ccc(C(=O)Cc2c(Cl)cncc2Cl)c(OCC(=O)NCC2CCCCCC2)c1OC [Compound 257, N-Cycloheptylmethyl-2-{6-[2-(3,5-dichloro-pyridin-4-yl)-acetyl]-2,3-dimethoxy-phenoxy}-acetamide] | < 1 µM |
| COc1ccc(C(=O)Cc2c(Cl)cncc2Cl)c(OCC(=O)NCCOCCO)c1OC [Compound 258, 2-{6-[2-(3,5-Dichloro-pyridin-4-yl)-acetyl]-2,3-dimethoxy-phenoxy}-N-[2-(2-hydroxy-ethoxy)-ethyl]-acetamide] | < 1 µM |
| COc1ccc(C(=O)Cc2c(Cl)cncc2Cl)c(O)c1OC1CCCC1 [Compound 260, 1-(3-Cyclopentyloxy-2-hydroxy-4-methoxy-phenyl)-2-(3,5-dichloro-pyridin-4-yl)-ethanone] | < 1 µM |
| COc1ccc(C(=O)Cc2c(Cl)cncc2Cl)c(O)c1OCC1CC1 [Compound 261, 1-(3-Cyclopropylmethoxy-2-hydroxy-4-methoxy-phenyl)-2-(3,5-dichloro-pyridin-4-yl)-ethanone] | < 1 µM |
| CCOc1c(OC)ccc(C(=O)Cc2c(Cl)cncc2Cl)c1O [Compound 262, 2-(3,5-Dichloro-pyridin-4-yl)-1-(3-ethoxy-2-hydroxy-4-methoxy-phenyl)-ethanone] | < 1 µM |
| CCOc1c(OC)ccc(C(=O)Cc2c(Cl)cncc2Cl)c1OCCc1ccccc1 [Compound 263, 2-(3,5-Dichloro-pyridin-4-yl)-1-(3-ethoxy-4-methoxy-2-phenethyloxy-phenyl)-ethanone] | < 1 µM |
| CCOc1c(OC)ccc(C(=O)Cc2c(Cl)cncc2Cl)c1OCc1nnc(C2CC2)s1 [Compound 264, 1-[2-(5-Cyclopropyl-[1,3,4]thiadiazol-2-ylmethoxy)-3-ethoxy-4-methoxy-phenyl]-2-(3,5-dichloro-pyridin-4-yl)-ethanone] | < 1 µM |
| CCOc1c(OC)ccc(C(=O)Cc2c(Cl)cncc2Cl)c1OCC(=O)OCc1ccccc1 [Compound 265, {6-[2-(3,5-Dichloro-pyridin-4-yl)-acetyl]-2-ethoxy-3-methoxy-phenoxy}-acetic acid benzyl ester] | < 1 µM |
| C=CCOc1c(OC)ccc(C(=O)Cc2c(Cl)cncc2Cl)c1O [Compound 266, 1-(3-Allyloxy-2-hydroxy-4-methoxy-phenyl)-2-(3,5-dichloro-pyridin-4-yl)-ethanone] | < 1 µM |
| C=CCOc1c(OC)ccc(C(=O)Cc2c(Cl)cncc2Cl)c1OCc1ccccc1C#N [Compound 267, 2-{2-Allyloxy-6-[2-(3,5-dichloro-pyridin-4-yl)-acetyl]-3-methoxy-phenoxymethyl}-benzonitrile] | < 1 µM |
| C=CCOc1c(OC)ccc(C(=O)Cc2c(Cl)cncc2Cl)c1OCCc1ccccc1 [Compound 268, 1-(3-Allyloxy-4-methoxy-2-phenethyloxy-phenyl)-2-(3,5-dichloro-pyridin-4-yl)-ethanone] | < 1 µM |
